IC50 data for 17 compounds are collected here from patent US20260297081A1, “COMPOUNDS AND METHODS OF TREATING CANCERS” (Cullgen Inc., priority 2023, published 2026).

Some results are limits rather than exact numbers.

The test system of this assay is MCF7 cells. Description: Anti-proliferation (viability) of MCF7 cells (Table 7, FIG. 2B). In kind it is cell-based. Particulars: Homo sapiens, MCF7, MCF7 cells, 3-6 days, 10-point serial dilution; read-out: GI IC50 in MCF-7.

Take `CC(=O)c1c(C)c2cnc(Nc3ccc(N4CCC5(CC4)CC5C(=O)NC4CC5(C4)CC(Nc4nc(NC(C)C)ccc4C(=O)Nc4cc(C)n(C)n4)C5)cn3)nc2n(C2CCCC2)c1=O` (centres unmarked) [CPD-451, 6-(6-((6-acetyl-8-cyclopentyl-5-methyl-7-oxo-7,8-dihydropyrido[2,3-d]pyrimidin-2-yl)amino)pyridin-3-yl)-N-(6-((3-((1,5-dimethyl-1H-pyrazol-3-yl)carbamoyl)-6-(isopropylamino)pyridin-2-yl)amino)spiro[3.3]heptan-2-yl)-6-azaspiro[2.5]octane-1-carboxamide]: the IC50 (as a rule, the concentration needed to halve the response being measured) is less than 50 nM.

As to `[2H]C([2H])([2H])Nc1ccc(C(=O)Nc2ccc(N(C)C)nn2)c(NC2CC3(C2)CC(C(=O)N2CC4(CCN(c5ccc(Nc6ncc7c(C)c(C(C)=O)c(=O)n(C8CCCC8)c7n6)nc5)C4)C2)C3)n1` (centres unmarked) [CPD-378, 2-((6-(6-(6-((6-acetyl-8-cyclopentyl-5-methyl-7-oxo-7,8-dihydropyrido[2,3-d]pyrimidin-2-yl)amino)pyridin-3-yl)-2,6-diazaspiro[3.4]octane-2-carbonyl)spiro[3.3]heptan-2-yl)amino)-N-(6-(dimethylamino)pyridazin-3-yl)-6-((methyl-d3)amino)nicotinamide], the IC50 was greater than 100 nM.

On to `CC(=O)c1c(C)c2cnc(Nc3ccc(N4CCN(CC(=O)NC5CC6(C5)CC(Nc5nc(NC(C)C)ccc5C(=O)Nc5cc(C)n(C7CC7)n5)C6)CC4)cn3)nc2n(C2CCCC2)c1=O` (centres unmarked) [CPD-452, 2-((6-(2-(4-(6-((6-acetyl-8-cyclopentyl-5-methyl-7-oxo-7,8-dihydropyrido[2,3-d]pyrimidin-2-yl)amino)pyridin-3-yl)piperazin-1-yl)acetamido)spiro[3.31]heptan-2-yl)amino)-N-(1-cyclopropyl-5-methyl-1H-pyrazol-3-yl)-6-(isopropylamino)nicotinamide], for which the IC50 is less than 50 nM.

As to `CNc1ccc(C(=O)Nc2ccc(N(C)C)nn2)c(NC2CC3(C2)CC(C(=O)N2CC4(CCN(c5ccc(Nc6ncc7c(C)c(C(C)=O)c(=O)n(C8CCCC8)c7n6)nc5)CC4)C2)C3)n1` (centres unmarked) [CPD-363], the IC50 is greater than 100 nM.

`[2H]C([2H])([2H])Nc1ccc(C(=O)Nc2ccc(N(C)C)nn2)c(NC2CC(NC(=O)CN3CCC4(CCN(c5ccc(Nc6ncc7c(C)c(C(C)=O)c(=O)n(C8CCCC8)c7n6)nc5)C4)C3)C2)n1` (centres unmarked) [CPD-450, 2-((3-(2-(7-(6-((6-acetyl-8-cyclopentyl-5-methyl-7-oxo-7,8-dihydropyrido[2,3-d]pyrimidin-2-yl)amino)pyridin-3-yl)-2,7-diazaspiro[4.4]nonan-2-yl)acetamido)cyclobutyl)amino)-N-(6-(dimethylamino)pyridazin-3-yl)-6-((methyl-d3)amino)nicotinamide]: the IC50 was less than 50 nM.

As for `CC(=O)c1c(C)c2cnc(Nc3ccc(N4CCC5(CCN(CC(=O)N6CC7(CC(Nc8nc(NC(C)C)ccc8C(=O)Nc8cn(C)c(C9CC9)n8)C7)C6)C5)C4)cn3)nc2n(C2CCCC2)c1=O` (centres unmarked) [CPD-444, 2-((2-(2-(7-(6-((6-acetyl-8-cyclopentyl-5-methyl-7-oxo-7,8-dihydropyrido[2,3-d]pyrimidin-2-yl)amino)pyridin-3-yl)-2,7-diazaspiro[4.4]nonan-2-yl)acetyl)-2-azaspiro[3.3]heptan-6-yl)amino)-N-(2-cyclopropyl-1-methyl-1H-imidazol-4-yl)-6-(isopropylamino)nicotinamide], the IC50 is less than 50 nM.

As to `[2H]C([2H])([2H])Nc1ccc(C(=O)Nc2ccc(N(C)C)nn2)c(NC2CC3(C2)CN(C(=O)CCN2CCN(c4ccc(Nc5ncc6c(C)c(C(C)=O)c(=O)n(C7CCCC7)c6n5)nc4)CC2)C3)n1` [CPD-432, 2-((2-(3-(4-(6-((6-acetyl-8-cyclopentyl-5-methyl-7-oxo-7,8-dihydropyrido[2,3-d]pyrimidin-2-yl)amino)pyridin-3-yl)piperazin-1-yl)propanoyl)-2-azaspiro[3.3]heptan-6-yl)amino)-N-(6-(dimethylamino)pyridazin-3-yl)-6-((methyl-d3)amino)nicotinamide], the IC50 was less than 50 nM.

With `CC(=O)c1c(C)c2cnc(Nc3ccc(N4CCN(C(C)CC(=O)N5CCC(Nc6nc(NC(C)C)ccc6C(=O)Nc6ccc(N(C)C)nn6)C5)CC4)cn3)nc2n(C2CCCC2)c1=O` (centres unmarked) [CPD-370, 2-((1-(3-(4-(6-((6-acetyl-8-cyclopentyl-5-methyl-7-oxo-7,8-dihydropyrido[2,3-d]pyrimidin-2-yl)amino)pyridin-3-yl)piperazin-1-yl)butanoyl)pyrrolidin-3-yl)amino)-N-(6-(dimethylamino)pyridazin-3-yl)-6-(isopropylamino)nicotinamide], the IC50 is less than 50 nM.

As to `CC(=O)c1c(C)c2cnc(Nc3ccc(N4CCN(C(C)CC(=O)N5CC(Nc6nc(NC(C)C)ccc6C(=O)Nc6ccc(N(C)C)nn6)C5)CC4)cn3)nc2n(C2CCCC2)c1=O` (centres unmarked) [CPD-355, 2-((1-(3-(4-(6-((6-acetyl-8-cyclopentyl-5-methyl-7-oxo-7,8-dihydropyrido[2,3-d]pyrimidin-2-yl)amino)pyridin-3-yl)piperazin-1-yl)butanoyl)azetidin-3-yl)amino)-N-(6-(dimethylamino)pyridazin-3-yl)-6-(isopropylamino)nicotinamide], the IC50 is 50 to 100 nM.

`[2H]C([2H])([2H])Nc1ccc(C(=O)Nc2ccc(N(C)C)nn2)c(NC2CC3(CC(NC(=O)C4CC45CCN(c4ccc(Nc6ncc7c(C)c(C(C)=O)c(=O)n(C8CCCC8)c7n6)nc4)CC5)C3)C2)n1` (centres unmarked) [CPD-439, 6-(6-((6-acetyl-8-cyclopentyl-5-methyl-7-oxo-7,8-dihydropyrido[2,3-d]pyrimidin-2-yl)amino)pyridin-3-yl)-N-(6-((3-((6-(dimethylamino)pyridazin-3-yl)carbamoyl)-6-((methyl-d3)amino)pyridin-2-yl)amino)spiro[3.3]heptan-2-yl)-6-azaspiro[2.5]octane-1-carboxamide]: the IC50 was less than 50 nM.

For `COc1cccc(NC(=O)c2ccc(NC(C)C)nc2NC2CC3(CC(NC(=O)CN4CCN(c5ccc(Nc6ncc7c(C)c(C(C)=O)c(=O)n(C8CCCC8)c7n6)nc5)CC4)C3)C2)n1` (centres unmarked) [CPD-453, 2-((6-(2-(4-(6-((6-acetyl-8-cyclopentyl-5-methyl-7-oxo-7,8-dihydropyrido[2,3-d]pyrimidin-2-yl)amino)pyridin-3-yl)piperazin-1-yl)acetamido)spiro[3.3]heptan-2-yl)amino)-6-(isopropylamino)-N-(6-methoxypyridin-2-yl)nicotinamide], the IC50 lay in the range of 50 to 100 nM.

In the case of `CNc1ccc(C(=O)Nc2ccc(N(C)C)nn2)c(NC2CC(n3cc(CN4CCN(c5ccc(Nc6ncc7c(C)c(C(C)=O)c(=O)n(C8CCCC8)c7n6)nc5)CC4)nn3)C2)n1` (centres unmarked) [CPD-335, 2-((3-(4-((4-(6-((6-acetyl-8-cyclopentyl-5-methyl-7-oxo-7,8-dihydropyrido[2,3-d]pyrimidin-2-yl)amino)pyridin-3-yl)piperazin-1-yl)methyl)-1H-1,2,3-triazol-1-yl)cyclobutyl)amino)-N-(6-(dimethylamino)pyridazin-3-yl)-6-(methylamino)nicotinamide], the IC50 is greater than 100 nM.

Turning to `CC(=O)c1c(C)c2cnc(Nc3ccc(N4CCN(CC(=O)N5CCC(Nc6nc(NC(C)C)ccc6C(=O)Nc6ccc(N(C)C)nn6)CC5)CC4)cn3)nc2n(C2CCCC2)c1=O` [CPD-369, 2-((1-(2-(4-(6-((6-acetyl-8-cyclopentyl-5-methyl-7-oxo-7,8-dihydropyrido[2,3-d]pyrimidin-2-yl)amino)pyridin-3-yl)piperazin-1-yl)acetyl)piperidin-4-yl)amino)-N-(6-(dimethylamino)pyridazin-3-yl)-6-(isopropylamino)nicotinamide], the IC50 is 50 to 100 nM.

On to `CNc1ccc(C(=O)Nc2ccc(N(C)C)nn2)c(NC2CCC3(CC(NC(=O)CN4CCN(c5ccc(Nc6ncc7c(C)c(C(C)=O)c(=O)n(C8CCCC8)c7n6)nc5)CC4)C3)C2)n1` (centres unmarked) [CPD-416, 2-((2-(2-(4-(6-((6-acetyl-8-cyclopentyl-5-methyl-7-oxo-7,8-dihydropyrido[2,3-d]pyrimidin-2-yl)amino)pyridin-3-yl)piperazin-1-yl)acetamido)spiro[3.4]octan-6-yl)amino)-N-(6-(dimethylamino)pyridazin-3-yl)-6-(methylamino)nicotinamide], for which the IC50 is greater than 100 nM.

On to `CC(=O)c1c(C)c2cnc(Nc3ccc(N4CCC5(CC4)CC(C(=O)NC4CC6(C4)CC(Nc4nc(NC(C)C)ccc4C(=O)Nc4ccc(N(C)C)nn4)C6)C5)cn3)nc2n(C2CCCC2)c1=O` (centres unmarked) [CPD-437, 7-(6-((6-acetyl-8-cyclopentyl-5-methyl-7-oxo-7,8-dihydropyrido[2,3-d]pyrimidin-2-yl)amino)pyridin-3-yl)-N-(6-((3-((6-(dimethylamino)pyridazin-3-yl)carbamoyl)-6-(isopropylamino)pyridin-2-yl)amino)spiro[3.3]heptan-2-yl)-7-azaspiro[3.5]nonane-2-carboxamide], for which the IC50 is greater than 100 nM.

Regarding `CCCc1nc(NC(=O)c2ccc(NC)nc2NC2CC3(CC(NC(=O)CN4CCN(c5ccc(Nc6ncc7c(C)c(C(C)=O)c(=O)n(C8CCCC8)c7n6)nc5)CC4)C3)C2)cn1C` (centres unmarked) [CPD-309, 2-((6-(2-(4-(6-((6-acetyl-8-cyclopentyl-5-methyl-7-oxo-7,8-dihydropyrido[2,3-d]pyrimidin-2-yl)amino)pyridin-3-yl)piperazin-1-yl)acetamido)spiro[3.3]heptan-2-yl)amino)-N-(1-methyl-2-propyl-1H-imidazol-4-yl)-6-(methylamino)nicotinamide], the IC50 is greater than 100 nM.

On to `CC(=O)c1c(C)c2cnc(Nc3ccc(N4CCN(C(C)CC(=O)N5CCC(Nc6nc(NC(C)C)ccc6C(=O)Nc6cn(C)c(C7CC7)n6)CC5)CC4)cn3)nc2n(C2CCCC2)c1=O` (centres unmarked) [CPD-431, 2-((1-(3-(4-(6-((6-acetyl-8-cyclopentyl-5-methyl-7-oxo-7,8-dihydropyrido[2,3-d]pyrimidin-2-yl)amino)pyridin-3-yl)piperazin-1-yl)butanoyl)piperidin-4-yl)amino)-N-(2-cyclopropyl-1-methyl-1H-imidazol-4-yl)-6-(isopropylamino)nicotinamide], for which the IC50 lay in the range of 50 to 100 nM.
